Measurements as given in patent publication US9567300B2, “Hexahydropentaleno derivatives, preparation method and use in medicine thereof” (SUNSHINE LAKE PHARMA CO., LTD., priority 2012, dated 2017).

Experiments:
[1] = target: T1, DPP-IV (Homo sapiens, UniProt P27487); assay: Active inhibition DPP-IV assay (Gly-Pro-AMC substrate, fluorescence); assay type: biochemical; conditions: Gly-Pro-AMC 10 μM, 25 mM Tris pH 8.0
T1 construct: purchased R&D 1180-SE
Method: (§1) The following methods were used for testing the inhibitive action of the compound disclosed herein against DPP-IV, DPP-8 and DPP-9 enzymatic activity. The inhibitive ability of the compound disclosed herein against enzymatic activity of DPP-IV, DPP-8 and DPP-9 was tested. The measurements of the inhibition ratio or the 50% inhibiting concentration IC50 of every compound were based on a fixed quantity of enzyme-substrate mixtures and different concentrations of the test compounds.
DPP-IV enzyme was purchased from R&D, Catalog No. 1180-SE.
(§2) The test compound was dissolved in an appropriate amount of DMSO to prepare 100 mM mother liquor, which was divided into EP tubes and preserved at −20° C. The mother liquor was diluted with an assay buffer to prepare solutions with required concentrations. Sample solutions with different concentrations (4 μL) and certain concentration of DPP-IV (DPP-8 or DPP-9) solution (4 μL) were added into 384-well plates in turn. Referred to the instruction manual, Gly-Pro-AMC was selected as a substrate and the concentration thereof was 10 μM. The 16 mM mother liquor was prepared from the substrate and preserved at −20° C. for use. The 16 mM mother liquor was diluted with an assay buffer to a solution of known concentration. The assay buffer of DPP-IV was 25 mM Tris, and its pH was 8.0. The assay buffers of DPP-8 and DPP-9 were 50 mM Tris, and their pH was 7.5. The substrate mother liquor was diluted with an assay buffer, and the mixture (4 μL) was added into 384-well plates to prepare final solution concentration. The whole process was carried out in an ice bath. After the addition of the components of the assay system was completed, the system was centrifuged. The supernatant was then transferred to an Infinite F200 multifunctional microplate reader, and 20 fluorescence values were recorded every 30 sec. And then Slope (V0) was calculated directly by the software of microplate reader, fetching the data in the linear range. The measured reaction rate and the corresponding inhibition concentration were analyzed. Percent inhibition is I(%)=(V0−Vi)/V0×100%. Vi represents the initial reaction rate at different inhibition concentrations. V0 represents the initial reaction rate without inhibitor. Vi/V0 represents the inhibition level of inhibitor. Relevant curve chart was made with inhibition concentration as a horizontal coordinate and the value of Vi/V0 as a vertical coordinate. The IC50 values were calculated by Graph Pad Prism statistical analysis software.

[2] = target: T2, DPP-8 (Homo sapiens, UniProt Q6V1X1); assay: Active inhibition DPP-8 assay (Gly-Pro-AMC substrate, fluorescence); assay type: biochemical; conditions: Gly-Pro-AMC 10 μM, 50 mM Tris pH 7.5
T2 construct: purchased Biomol SE-827
T2 sequence (Q6V1X1 whole entry): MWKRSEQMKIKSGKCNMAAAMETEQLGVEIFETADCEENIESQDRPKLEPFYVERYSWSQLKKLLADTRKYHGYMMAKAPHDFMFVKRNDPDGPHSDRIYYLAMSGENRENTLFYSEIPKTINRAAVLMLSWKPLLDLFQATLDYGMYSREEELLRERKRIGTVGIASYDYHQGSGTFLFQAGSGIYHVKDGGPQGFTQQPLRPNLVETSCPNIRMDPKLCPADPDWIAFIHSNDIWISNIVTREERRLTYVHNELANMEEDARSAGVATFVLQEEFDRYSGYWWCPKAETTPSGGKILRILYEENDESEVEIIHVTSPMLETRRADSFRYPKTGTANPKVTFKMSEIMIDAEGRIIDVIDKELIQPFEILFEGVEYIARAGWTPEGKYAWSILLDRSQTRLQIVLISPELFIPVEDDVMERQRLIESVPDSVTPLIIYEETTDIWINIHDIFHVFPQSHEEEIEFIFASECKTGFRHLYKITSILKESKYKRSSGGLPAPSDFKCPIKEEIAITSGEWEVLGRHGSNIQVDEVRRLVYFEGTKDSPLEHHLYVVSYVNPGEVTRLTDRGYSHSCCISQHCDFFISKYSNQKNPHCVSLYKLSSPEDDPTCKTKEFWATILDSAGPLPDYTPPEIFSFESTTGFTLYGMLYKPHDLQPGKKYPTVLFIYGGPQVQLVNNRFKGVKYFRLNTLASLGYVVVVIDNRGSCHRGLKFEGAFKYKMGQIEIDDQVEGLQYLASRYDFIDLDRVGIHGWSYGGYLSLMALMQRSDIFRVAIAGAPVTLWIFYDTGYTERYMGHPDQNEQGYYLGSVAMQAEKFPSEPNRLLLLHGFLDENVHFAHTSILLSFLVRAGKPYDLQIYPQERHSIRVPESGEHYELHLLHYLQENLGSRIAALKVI
Method: as §1
DPP-8 enzyme was purchased from Biomol, Catalog No. SE-827.
as §2

[3] = target: T3, DPP-9 (Homo sapiens, UniProt Q86TI2); assay: Active inhibition DPP-9 assay (Gly-Pro-AMC substrate, fluorescence); assay type: biochemical; conditions: Gly-Pro-AMC 10 μM, 50 mM Tris pH 7.5
T3 construct: purchased Bioscience 80090
T3 sequence (Q86TI2 whole entry): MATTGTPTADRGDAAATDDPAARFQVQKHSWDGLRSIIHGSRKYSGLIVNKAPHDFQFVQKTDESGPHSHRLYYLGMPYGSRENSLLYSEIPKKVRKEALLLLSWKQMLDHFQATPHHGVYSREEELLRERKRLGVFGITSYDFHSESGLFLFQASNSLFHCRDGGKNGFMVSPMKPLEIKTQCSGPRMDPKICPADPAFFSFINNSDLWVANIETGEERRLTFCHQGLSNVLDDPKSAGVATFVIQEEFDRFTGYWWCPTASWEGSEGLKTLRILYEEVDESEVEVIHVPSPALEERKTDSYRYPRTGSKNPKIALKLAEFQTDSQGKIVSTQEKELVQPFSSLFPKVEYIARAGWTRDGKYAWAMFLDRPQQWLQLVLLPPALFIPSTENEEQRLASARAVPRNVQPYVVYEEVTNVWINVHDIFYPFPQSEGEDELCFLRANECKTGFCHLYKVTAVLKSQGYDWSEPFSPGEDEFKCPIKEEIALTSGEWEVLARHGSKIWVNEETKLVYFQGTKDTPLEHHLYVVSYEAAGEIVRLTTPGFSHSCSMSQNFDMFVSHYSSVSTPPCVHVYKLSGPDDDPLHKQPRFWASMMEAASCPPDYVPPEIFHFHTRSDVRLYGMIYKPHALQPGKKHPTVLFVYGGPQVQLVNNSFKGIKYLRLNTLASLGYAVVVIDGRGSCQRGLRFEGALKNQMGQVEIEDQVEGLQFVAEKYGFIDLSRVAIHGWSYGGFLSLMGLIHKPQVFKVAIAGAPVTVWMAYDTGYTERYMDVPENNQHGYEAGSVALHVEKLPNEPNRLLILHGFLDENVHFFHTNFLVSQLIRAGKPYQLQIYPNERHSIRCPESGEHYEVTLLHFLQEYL
Method: as §1
DPP-9 enzyme was purchased from Bioscience, Catalog No. 80090.
as §2

[4] = test system: normal C57BL/6 mice; assay: Effects of DPP-IV inhibitors on the blood glucose of normal C57BL/6 mice (oral glucose tolerance); assay type: in vivo; conditions: oral 5 mg/kg; for Nor-sugar rate % (5 mg/kg): male C57BL/6 mice, glucose 2.5 g/kg by gavage 30 min after administration; for hypoglycemic activities for C57BL/6 mice: conclusion in words
Method: The effects of the test compounds on the oral glucose tolerance of normal C57BL/6 mice were observed, and the hypoglycemic activities of these compounds in vivo were evaluated preliminarily.
Preparation procedure: Drugs were accurately weighed, and 5 mg of compounds of examples 3, 9 15, 16 and 17 were dissolved respectively in 20 mL of normal saline to obtain 0.25 mg/mL solutions.
Administrated Dose: The oral dose was 5 mg/kg and the gavage dose was 0.02 mL/g.
Test Method: The normal male C57BL/6 mice were grouped randomly into a blank control group, a positive control group, and treatment groups having 7 mice each group.
Administration and Serum Glucose Determination: C57BL/6 mice of each group were fasted for 18 hours before the experiment. The blood was drawn from the caudal vein of the mice and the glucose level was measured by using a blood-glucose meter. After detection, 0.25 mg/mL of positive control, 0.25 mg/mL of examples 3, 9, 15, 16 and 17 and normal saline were respectively administered to the positive control group, treatment groups and blank control group by intragastric administration. The blood glucose level (0 min) of positive control group was measured in 60 min after administration. The blood glucose levels (0 min) of the other groups were measured in 30 min after administration, and then glucose (2.5 g/kg) was administered to the mice through gavage. The blood was drawn from the caudal vein of the mice in 15 min, 30 min, 45 min, 60 min, 120 min after administration. The blood glucose levels of C57BL/6 mice were measured continuously by blood-glucose meter.
1. Glucose concentration-time curve was plotted, and AUC from 0 to 120 min and hypoglycemic rate of each dosage group at blood glucose peak were calculated.
2. Experimental data were represented in x±SD. The data were analyzed by SPSS 16.0 software. The data were compared between multiple groups using nonparametric Kruskal-Wallis H test method.

T1 sequence (P27487 whole entry): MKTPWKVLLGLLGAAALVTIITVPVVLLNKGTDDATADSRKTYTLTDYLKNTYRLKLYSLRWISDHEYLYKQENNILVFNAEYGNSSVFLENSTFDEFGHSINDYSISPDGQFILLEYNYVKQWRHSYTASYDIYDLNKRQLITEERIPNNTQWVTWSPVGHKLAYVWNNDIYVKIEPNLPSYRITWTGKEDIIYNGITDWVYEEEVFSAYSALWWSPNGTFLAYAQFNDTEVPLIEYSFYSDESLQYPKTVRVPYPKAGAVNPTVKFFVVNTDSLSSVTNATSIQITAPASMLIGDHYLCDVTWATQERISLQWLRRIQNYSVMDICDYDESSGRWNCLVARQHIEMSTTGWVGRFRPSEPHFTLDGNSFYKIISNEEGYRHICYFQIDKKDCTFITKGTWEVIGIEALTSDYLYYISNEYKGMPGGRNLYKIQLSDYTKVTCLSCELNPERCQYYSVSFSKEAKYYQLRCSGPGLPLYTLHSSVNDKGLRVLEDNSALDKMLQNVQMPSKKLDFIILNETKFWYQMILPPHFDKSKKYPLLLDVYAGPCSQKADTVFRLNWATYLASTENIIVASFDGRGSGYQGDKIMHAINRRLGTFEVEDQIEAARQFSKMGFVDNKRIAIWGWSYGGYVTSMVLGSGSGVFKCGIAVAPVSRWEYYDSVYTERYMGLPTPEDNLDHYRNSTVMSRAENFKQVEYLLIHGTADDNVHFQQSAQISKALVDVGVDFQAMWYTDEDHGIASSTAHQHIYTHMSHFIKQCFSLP

**Q.** For C[C@@]1(NCC(=O)N2CCC[C@H]2C#N)C[C@H]2CC(C#N)C[C@H]2C1 (stereo partly drawn) [Example 16, (2S)-1-(2-(((2s,3aR,6aS)-5-cyano-2-methyloctahydropentalen-2-yl)amino)acetyl)pyrrolidine-2-carbonitrile], which IC50 [1] is on record?
**A.** 1.37 nM

**Q.** What about the IC50 [2] of the same compound?
**A.** 12800 nM

**Q.** What about the IC50 [3] of the same compound?
**A.** 340 nM

**Q.** And the “Nor-sugar rate % (5 mg/kg)” value [4]?
**A.** 24.69%

**Q.** What about the “hypoglycemic activities for C57BL/6 mice” value [4] of the same compound?
**A.** good hypoglycemic activities

**Q.** For C[C@@]1(NCC(=O)N2C[C@@H](F)C[C@H]2C#N)C[C@H]2C[C@H](O)C[C@H]2C1 [Example 9, (2S,4S)-4-fluoro-1-(2-(((2r,3aR,5R,6aS)-5-hydroxy-2-methyloctahydropentalen-2-yl)amino)acetyl)pyrrolidine-2-carbonitrile], which IC50 [1] is on record?
**A.** 4.01 nM

**Q.** And the IC50 [2]?
**A.** 2850 nM

**Q.** What about the IC50 [3] of the same compound?
**A.** 29 nM

**Q.** And the “Nor-sugar rate % (5 mg/kg)” value [4]?
**A.** 18.7%

**Q.** What about the “hypoglycemic activities for C57BL/6 mice” value [4] of the same compound?
**A.** good hypoglycemic activities
